{
  "source": "patent US12364669B2",
  "about": "“Device and method for transdermal delivery of cannabidiol” (Remy Biosciences, Inc., priority 2020, dated 2025)",
  "assay": "Diffusion of CBD from transdermal devices through a human cadaver epidermis, Franz Diffusion Cell method",
  "type": "in vitro ADME",
  "details": "Example 2, FIG. 4; reservoir device, 5 percent CBD in ethanol/water 70/30; with hydrophilic porous membrane 24 versus membrane omitted",
  "description": "The effects of using a hydrophobic, porous membrane versus a hydrophilic, porous membrane (such as membrane 24) in reservoir transdermal device 20 are studied in this example. […] The backing 22 is an occlusive backing film (PE/PET from 3M). Hydroxy ethyl cellulose is added to the solution to yield a thixotropic preparation 27. A volume of 300 microliters of the preparation is placed in the reservoir 26.\nThe skin adhesive 30 is a BIO PSA 7-4301 adhesive coated to a thickness of 15 g/m^2 on side 36 of membrane 24. An overlay adhesive patch is placed over the reservoir which forms an island in the middle. The overlay assures adhesion of the reservoir to the skin. The device 20 is contacted with a human cadaver epidermis, and diffusion through the epidermis is measured using the Franz Diffusion Cell method.\nIn a first run, membrane 24 is a Lydall® Evopor™ 5E02A, hydrophilic, microporous membrane (of 0.2 micrometers pore size). […]\nThe device 20 is contacted with a human cadaver epidermis, and diffusion through the epidermis is measured using the Franz Diffusion Cell method. […]\nThis example is conducted using three reservoir transdermal devices such as those of Example 1, with each having the hydrophilic, porous membrane described therein. […] Diffusion through a human cadaver epidermis is measured using the Franz Diffusion Method. […]",
  "data": [
    {"smiles": "C=C(C)[C@@H]1CCC(C)=C[C@H]1c1c(O)cc(CCCCC)cc1O", "note": "[CBD, Cannabidiol]", "values": [
      {"measurement": "permeability of CBD through the skin (cumulative flux versus time)", "result": "the same regardless of whether the membrane 24 is provided"}
    ]}
  ]
}
